Article PMC11156954, “Inhibition and transport mechanisms of the ABC transporter hMRP5” (Nature Communications, 2024)
“Also recorded” adds a separate entry of the source. No end group written: not given here.

How the values were obtained:
hMRP4 = target: T1, hMRP4 (Homo sapiens, UniProt O15439); assay: MST binding assay, hMRP4; conditions: MST, three independent measurements
T1 sequence (O15439 1-1325): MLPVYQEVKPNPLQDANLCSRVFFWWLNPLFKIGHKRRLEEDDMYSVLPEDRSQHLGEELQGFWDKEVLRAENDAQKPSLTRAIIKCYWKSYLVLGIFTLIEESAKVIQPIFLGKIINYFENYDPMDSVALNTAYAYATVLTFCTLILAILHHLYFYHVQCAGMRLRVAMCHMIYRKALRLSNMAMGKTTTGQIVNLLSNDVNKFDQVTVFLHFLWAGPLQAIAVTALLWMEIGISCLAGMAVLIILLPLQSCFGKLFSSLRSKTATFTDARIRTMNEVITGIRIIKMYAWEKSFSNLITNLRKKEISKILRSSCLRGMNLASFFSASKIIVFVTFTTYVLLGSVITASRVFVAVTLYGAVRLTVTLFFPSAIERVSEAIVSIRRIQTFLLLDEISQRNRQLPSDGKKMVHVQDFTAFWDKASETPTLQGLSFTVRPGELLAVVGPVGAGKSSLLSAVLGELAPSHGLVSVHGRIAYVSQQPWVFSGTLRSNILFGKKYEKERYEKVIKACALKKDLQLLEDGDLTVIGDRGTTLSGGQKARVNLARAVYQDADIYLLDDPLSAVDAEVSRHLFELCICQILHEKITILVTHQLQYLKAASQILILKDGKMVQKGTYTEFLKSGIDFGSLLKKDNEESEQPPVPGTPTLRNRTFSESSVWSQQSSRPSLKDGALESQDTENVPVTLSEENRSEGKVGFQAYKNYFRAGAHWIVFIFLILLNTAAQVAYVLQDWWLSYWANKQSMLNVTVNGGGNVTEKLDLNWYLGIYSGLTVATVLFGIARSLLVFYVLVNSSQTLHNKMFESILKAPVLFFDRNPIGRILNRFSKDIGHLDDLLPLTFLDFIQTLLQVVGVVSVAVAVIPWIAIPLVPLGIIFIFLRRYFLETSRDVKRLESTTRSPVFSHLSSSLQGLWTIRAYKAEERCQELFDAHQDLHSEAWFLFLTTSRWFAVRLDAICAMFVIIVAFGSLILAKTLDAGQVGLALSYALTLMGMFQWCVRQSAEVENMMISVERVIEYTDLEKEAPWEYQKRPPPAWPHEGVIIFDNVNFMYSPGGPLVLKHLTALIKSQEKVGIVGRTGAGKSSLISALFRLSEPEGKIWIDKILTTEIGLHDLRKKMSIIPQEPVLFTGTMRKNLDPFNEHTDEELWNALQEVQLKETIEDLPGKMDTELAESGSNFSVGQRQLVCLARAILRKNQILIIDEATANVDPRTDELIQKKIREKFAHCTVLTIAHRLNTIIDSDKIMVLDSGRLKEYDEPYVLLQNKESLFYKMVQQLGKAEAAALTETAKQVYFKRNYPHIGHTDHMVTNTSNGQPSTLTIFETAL

GFP-hMRP5 = assay: Doxorubicin transport assay in Xenopus laevis oocytes; format: cell-based, human; conditions: oocytes expressing both hMRP5 and M5PI vs only hMRP5; 200 μM doxorubicin, 180 min; two-tailed t-test *P = 0.0442
Method: The transport assay was essentially done and modified as described. In brief, the cRNAs of C-terminal GFP-tagged hMRP5 and C-terminal mcherry-tagged M5PI were prepared from the linearized pcs2CAG vector DNA templates using the mMESSAGE mMACHINE T7 transcription system (Thermo Scientific, AM1344). Xenopus oocytes were injected with approximately 30 nl of cRNA (GFP-tagged hMRP5 and mcherry-tagged M5PI have the equal quantity 30 ng) or water after maintained in ND96 solution (96 mM NaCl, 2 mM KCl, 1 mM MgCl2, 1.8 mM CaCl2, 5 mM HEPES, pH 7.4) overnight. After 3 days of culture, the GFP and mcherry fluorescence of oocytes was detected using Nikon Confocal A1R, and oocytes showing similar fluorescence intensity were selected for assay. Then, oocytes were pre-incubated in Kulori buffer (90 mM NaCl, 1 mM KCl, 1 mM MgCl2, 5 mM HEPES, pH 7.4) for 5 min before being transferred to 1 ml Kulori buffer containing 200 μM doxorubicin for 180 min. The assay was stopped by removing the buffer and then washed with Kulori buffer at least 3 times and transferred into 1.5 ml tubes (3 oocytes per tube). Excess washing buffer was removed from the tube, and then 50 μl 50% methanol was added to the tube for oocyte homogenization by pipetting. The homogenized samples were centrifuged at 10,000 × g for 10 min at 4 °C, and the supernatants were transferred into new tubes and incubated at −20 °C until further analysis. The samples were acquired with a Q Exactive mass spectrometer coupled with UltiMate 3000 liquid chromatography system (Thermo scientific, CA, USA) after centrifugation at 20,000 × g for 15 min at 4 °C. A Hypersil GOLDTM C18 column (2.1 ×100 mm, 1.9 μm, Thermo Scientific) was used at a flow rate of 0.3 ml min^−1 for separation. Mobile phase A was 0.1% formic acid, while mobile phase B was acetonitrile modified with 0.1% formic acid. The mass spectrometer was operated in positive mode with a spray voltage of 3.5 kV. Full scan mass spectrometry data were recorded from the m/z range of 80–800. A standard dilution curve for quantification of doxorubicin was done. Statistical analysis of the transport assay results was performed using GraphPad Prism. Source data is provided as Source Data 6. The mass spectrometry data is provided as Supplementary Data 3.

**Q.** With “CSKFRRTRPLECQDALETAARAEGLSLDASMHSQLRILDEC (cysteines drawn unpaired) [M5PI]” as the sequence, how does the “binding affinity to hMRP4, in words” value (hMRP4) read?
**A.** Its value is “not detectable; also recorded: could not be estimated through MST test; also recorded: rarely”.

**Q.** What about the “inhibition of doxorubicin transport, in words” value (GFP-hMRP5) of the same sequence?
**A.** Its value is “contained a relatively higher amount of doxorubicin than oocytes expressing only hMRP5”.
